Laboratory results: paper PMC8839660, “Structural Refinement of 2,4-Thiazolidinedione Derivatives as New Anticancer Agents Able to Modulate the BAG3 Protein” (Molecules, 2022)

Experiments:
BAG3 domain (rBAG3BD) = target: T1, BAG3 domain (rBAG3BD) (Homo sapiens, UniProt O95817); assay: SPR assay on isolated BAG3 BAG domain; settings: for rBAG3BD KD ± SD: SPR, isolated BAG domain, 25 °C, n.b. = no binding
T1 sequence (O95817 421-498 limits assumed): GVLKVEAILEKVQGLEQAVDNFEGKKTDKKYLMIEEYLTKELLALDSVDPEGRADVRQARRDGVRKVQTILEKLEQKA
Procedure: (§9) A surface plasmon resonance (SPR) assay [18], using a recombinant BAG3 protein, was performed and, to explore the potential selectivity of our potential binders, the affinity for BAG4—the most closely BAG3 related protein—was also evaluated. Moreover, the binding affinity towards the BAG3BD domain was also assessed.
(§10) The SPR analysis were performed on Biacore 3000^TM equipped with a research-grade CM5 sensor chip (GE Healthcare^TM, Milan, Italy). Human recombinant BAG3 (rBAG3) protein was purchased from MyBioSource© (San Diego, CA, USA), BAG3 domain (rBAG3BD) was purchased from ARETA International S.r.l. […] The proteins were coupled to the surface of a CM5 sensor chip using standard amine-coupling protocols, according to the manufacturer’s instructions. Three separates recombinant rBAG proteins surfaces and one unmodified reference surface were prepared for simultaneous analyses. rBAG proteins (BAG3 and BAG4) and rBAG3BD (100 µg mL^−1 in 10 mM CH3COONa, pH 4.5) were immobilized on the sensor chip surface at a flow rate of 5 µL min^−1 to obtain densities of 5–9 kRU. […] For each molecule, a six-point concentration series was conducted in triplicate (0-0.25-1-10-20-100 µM). SPR (Surface Plasmon Resonance) experiments were performed at 25 °C, using a flow rate of 10 µL min^−1, with 60-s monitoring of association and 300-s monitoring of dissociation. Sensorgram elaborations were performed using the BIAevaluation software (GE Healthcare^TM, Milan, Italy). provided by GE Healthcare^TM. Simple interactions were suitably fitted to a single-site bimolecular interaction model (A + B = AB), yielding a single KD.

HeLa cells = assay: Apoptosis and cell cycle analysis by PI staining and flow cytometry, HeLa; format: cell-based, human; settings: 5-10-25 μM, 48 h
Procedure: (§1) The cells were incubated for 48 h with 1 and 6 at concentrations 5-10-25μM.
(§2) The effect of compound 1 and 6 on cell death was analyzed by propidium iodide (PI) (Merck, Darmstadt, Germany) incorporation in permeabilized cells and flow cytometry. Briefly, cells were plated at a density of 2 × 10^4 cells/well in a 24-well plate. After 24 h, 1 and 6 (25-10-5 μM) were added for 48 h. Cells were washed twice with PBS and incubated in 500μL of a solution containing 0.1% Triton X-100, 0.1% sodium citrate, and […] propidium iodide (PI), at 4 °C for 30 min in the dark. The PI-stained cells were subsequently analyzed by flow cytometry by FACSCalibur flow cytometer (Becton Dickinson, Milan, Italy) using CellQuest software (4.0, Becton Dickinson, North Ryde, NSW, Australia). Results are expressed as the percentage of cells in the hypodiploid region. Cellular debris were excluded from the analysis by raising the forward scatter threshold and the DNA content of the nuclei was registered on a logarithmic scale. Cell cycle profiles were evaluated by DNA staining with a PI solution using a flow cytometer. Results from 5000 events per sample were collected, and the relative percentage of the cells in G0/G1, S, G2/M, and sub-G0/G1 phases of the cell cycle was determined using the ModFit LT version 3.3 analysis software (BD Biosciences, North Ryde, NSW, Australia).
Figure 4 Cell cycle analysis: (a) DNA content and (b) hypodiploid nuclei, with propidium iodide staining, were evaluated by flow cytometric assay. HeLa cells were treated with 6 (5-10-25 μM) for 48 h. Results are expressed as mean ± S.E.M. of three independent experiments each performed in duplicate. Data were analyzed by Student’s t-test. * p < 0.05 and ** p < 0.005 vs. non-treated.

A375 cells = assay: Apoptosis and cell cycle analysis by PI staining and flow cytometry, A375; format: cell-based, human; settings: 5-10-25 μM, 48 h
Procedure: as §1, §2
Figure 3 Cell cycle analysis: (a) DNA content and (b) hypodiploid nuclei, with propidium iodide staining, were evaluated by flow cytometric assay. A375 cells were treated respectively with 1 or 6 (both 5-10-25 μM) for 48 h. Results are expressed as mean ± S.E.M. of three independent experiments, each performed in duplicate. Data were analyzed by Student’s t-test. * p < 0.05 and ** p < 0.005 vs. non-treated.

[1] = tested on: human cervical adenocarcinoma cell line (HeLa); assay: MTT cell viability assay, HeLa; format: cell-based; settings: 48 h, 5–50 µM; for IC50: Homo sapiens, HeLa, read-out: HeLa Cell Line IC50 ± SD
Procedure: (§3) Firstly, the antiproliferative activity of lead compound 1, 2 and 5–9 against selected human cell lines was assessed. No effect on human PHA (Phytohaemagglutinin)-stimulated proliferating non-tumor human cell line (PMBC) has been detected for compound 1 tested at different concentrations (10–50 μM) after 72 h of exposure. In more detail, all the synthesized compounds have been tested on human melanoma cancer A375 and HeLa cancer cell lines, which are known to overexpress BAG3 protein, by an MTT cell viability assay, using different concentrations (5–50 μM). The IC50 values have been calculated after 48 h of treatment with test compounds (Table 2).
(§4) Cell lines of human cervical carcinoma (HeLa) and human malignant melanoma (A375) were cultured in Dulbecco’s modified Eagle’s medium containing 10% fetal bovine serum, supplemented with 100 U/mL each of penicillin and streptomycin, and 2 mM/L glutamine and were grown at 37 °C under 5% CO2 air humidified atmosphere.
(§5) Cell viability was evaluated using a colorimetric assay based on MTT ((3-(4,5-dimethylthiazol-2-yl)-2,5-diphenyltetrazolium bromide)) assay. Cells were grown in 96-well tissue culture plates (3,5 × 10^3 cells/well) and after 24 h, were treated with different concentrations of 1, 2 and 5–9 (50, 25, 10, and 5 µM) and incubation was performed for 48 h at 37 °C in an atmosphere containing 5% CO2. At the end of treatment, the plates were centrifuged at 1200 rpm for 5 min, the medium was removed and 100 μL of MTT (1 mg/mL) were added to each well, and cells were incubated at 37 °C for the time necessary to allow the formation of purple formazan precipitate. The solution was then removed from each well, and the formazan crystals within the cells were dissolved with 100 μL of DMSO [31]. The optical density (OD) of each well was measured with a microplate spectrophotometer (Multiskan Spectrum Thermo Electron Corporation reader) (Thermo Fisher Scientific, Rome, Italy) equipped with a 620-nm filter. Cell mortality was calculated as: % mortality = 100 − [100 × (OD treated/OD control)] [32].

caspase 3 = assay: Caspase 3 level by flow cytometry in HeLa cells; format: cell-based, human; settings: 5-10-25 μM, 48 h
Procedure: (§6) Furthermore, the expression of caspases, the key mediators of programmed cells death, was examined in HeLa cells after the treatment with compound 6.
(§7) Cells were plated into 12-well plated (2 × 10^4 cells/well) and after 24 h were treated with 6 (50-25-10-5 µM) for 48 h to assess caspase 3 and caspase 9 levels. Cells were collected, washed with PBS, then incubated in fixing buffer (containing 4% formaldehyde, 0.1% NaN3, and 2% FBS in PBS) for 20 min and then permeabilized with fix perm solution (fixing buffer containing 0.1% Triton X) for 30 min. Afterward, anti-caspase 3 or anti-caspase 9 antibodies were added for a further 30 min. Cells were then incubated with anti-rabbit Texas Red antibody as a secondary antibody for 1 h at 4 °C. Cell fluorescence was evaluated using a fluorescence-activated cell sorter (FACSscan; Becton Dickinson, Milan, Italy) and analyzed with the Cell Quest software (4.0, Becton Dickinson, North Ryde, NSW, Australia). Data were shown as a percentage of positive cells.
(§8) Figure 5 (a) Caspase 3 and (b) caspase 9 expressions were detected by flow cytometric analysis. HeLa cells were treated with 6 (5-10-25 μM) for 48 h. Results are expressed as mean ± S.E.M. from at least three independent experiments each performed in duplicate. Data were analyzed by Student’s t-test. *** p < 0.0001 vs. non-treated.

[2] = target: T2, human recombinant BAG4 protein (Homo sapiens, UniProt O95429); assay: SPR assay on BAG4 (selectivity); settings: 25 °C, n.b. = no binding
T2 sequence (O95429 1-457): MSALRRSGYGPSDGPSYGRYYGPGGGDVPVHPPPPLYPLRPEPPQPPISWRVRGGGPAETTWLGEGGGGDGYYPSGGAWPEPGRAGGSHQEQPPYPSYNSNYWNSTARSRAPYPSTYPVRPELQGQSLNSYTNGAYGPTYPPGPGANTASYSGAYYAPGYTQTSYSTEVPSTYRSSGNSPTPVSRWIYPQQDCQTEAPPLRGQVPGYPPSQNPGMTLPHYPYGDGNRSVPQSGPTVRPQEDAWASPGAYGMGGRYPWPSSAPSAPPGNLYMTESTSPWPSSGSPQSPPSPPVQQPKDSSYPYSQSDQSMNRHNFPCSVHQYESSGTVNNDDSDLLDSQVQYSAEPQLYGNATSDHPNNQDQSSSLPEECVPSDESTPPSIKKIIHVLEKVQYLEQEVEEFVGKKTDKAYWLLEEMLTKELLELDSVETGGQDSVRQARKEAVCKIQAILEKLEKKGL
Procedure: as §9, §10

caspase 9 = assay: Caspase 9 level by flow cytometry in HeLa cells; format: cell-based, human; settings: 5-10-25 μM, 48 h
Procedure: as §6, §7, §8

[3] = target: Human recombinant BAG3 (rBAG3) protein full length (Homo sapiens, UniProt O95817); assay: SPR assay on recombinant full-length BAG3; settings: for rBAG3 KD ± SD: SPR, full-length protein, 25 °C, n.b. = no binding
Procedure: as §9, §10

BAG3 = BAG3 expression by Western blotting in HeLa cells; format: cell-based, human; settings: 5-10-25 μM, 48 h
Procedure: Figure 6 HeLa cells were treated with 6 (5-10-25 μM) for 48 h. BAG3 expression was detected by Western blotting. Tubulin protein expression was used as a loading control. Results are expressed as mean ± S.E.M. from at least three independent experiments each performed in duplicate. Data were analyzed by Student’s t test vs. non-treated.

[4] = tested on: human melanoma cell line (A375); assay: MTT cell viability assay, A375; format: cell-based; settings: 5–50 µM; for A375 Cell Line IC50 ± SD: 48 h; for IC50: Homo sapiens, A-375, 48 h, read-out: A375 Cell Line IC50 ± SD
Procedure: as §3, §4, §5

A549 = tested on: A549; design: method as in PMID 29926854; settings: A549 cells; read-out: antiproliferative activity IC50, A549; cited from earlier work
[5] = tested on: human PHA (Phytohaemagglutinin)-stimulated proliferating non-tumor human cell line (PMBC); design: method as in PMID 29926854; settings: 10–50 μM, 72 h of exposure; cited from earlier work
PC3 = tested on: PC3; design: method as in PMID 29926854; settings: PC3 cells; read-out: antiproliferative activity IC50, PC3; cited from earlier work

Sequence of Human recombinant BAG3 (rBAG3) protein full length (O95817 whole entry): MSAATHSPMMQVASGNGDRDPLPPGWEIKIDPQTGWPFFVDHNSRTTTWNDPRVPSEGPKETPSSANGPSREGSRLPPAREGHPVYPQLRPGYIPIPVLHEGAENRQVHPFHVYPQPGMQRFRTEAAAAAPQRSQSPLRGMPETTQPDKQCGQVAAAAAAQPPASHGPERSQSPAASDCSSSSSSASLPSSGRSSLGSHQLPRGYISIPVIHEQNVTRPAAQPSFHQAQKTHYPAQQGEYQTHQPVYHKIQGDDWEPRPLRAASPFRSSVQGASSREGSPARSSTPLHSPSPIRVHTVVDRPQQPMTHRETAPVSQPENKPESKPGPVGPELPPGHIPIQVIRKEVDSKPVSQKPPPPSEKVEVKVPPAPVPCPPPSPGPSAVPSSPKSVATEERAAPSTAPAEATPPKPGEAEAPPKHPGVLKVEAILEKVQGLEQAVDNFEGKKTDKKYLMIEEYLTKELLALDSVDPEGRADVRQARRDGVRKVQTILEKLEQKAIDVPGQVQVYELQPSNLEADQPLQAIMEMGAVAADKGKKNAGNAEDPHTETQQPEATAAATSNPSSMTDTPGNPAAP

SMILES | Kd (BAG3 domain (rBAG3BD)) [µM] | HeLa Cell Line IC50 ± SD [1] | IC50 [1] [µM] | rBAG4 KD ± SD [2] | Kd [3] [µM] | A375 Cell Line IC50 ± SD [4] | IC50 [4] [µM] | other results
CCOC(=O)CN1C(=O)S/C(=C\c2ccc(N(CCO)CCO)cc2)C1=O [Compound 6, (Z)-ethyl 2-(5-(4-(bis(2-hydroxyethyl)amino)benzylidene)-2,4-dioxothiazolidin-3-yl) acetate] | 0.0276 ± 0.0019 | micromolar range | 18.7 ± 0.9 | n.b. | 0.0063 ± 0.0003 | micromolar range | 19.4 ± 1.2 | apoptotic response (hypodiploid nuclei), HeLa (HeLa cells): significant increase of the apoptotic response in a dose-dependent manner; cell cycle distribution (G2 phase), HeLa (HeLa cells): dose-dependent accumulation in the G2 phase; apoptotic response (hypodiploid nuclei), A375 (A375 cells): significant increase of the apoptotic response in a dose-dependent manner; cell cycle distribution (G2 phase), A375 (A375 cells): dose-dependent accumulation in the G2 phase; caspase 3 levels (caspase 3): significant and dose-dependent activation; caspase 9 levels (caspase 9): significant and dose-dependent activation; BAG3 expression (BAG3): expression decrease of BAG3
COC(=O)CN1C(=O)S/C(=C\c2ccc(N(CCO)CCO)cc2)C1=O [Compound 7, (Z)-methyl 2-(5-(4-(bis(2-hydroxyethyl)amino)benzylidene)-2,4-dioxothiazolidin-3-yl) acetate] | 0.0457 ± 0.0017 |  | 49.4 ± 1.4 | n.b. | 0.0531 ± 0.0091 |  | > 50 | 
O=C(CN1C(=O)S/C(=C\c2cc(O)cc(O)c2)C1=O)N1CCOCC1 [Compound 5, (Z)-5-(3,5-dihydroxybenzylidene)-3-(2-morpholino-2-oxoethyl) thiazolidine-2,4-dione] |  | micromolar range | 30 ± 1.3 | n.b. |  | micromolar range | 25.5 ± 1.1 | 
CCOC(=O)CN1C(=O)S/C(=C\c2cc(O)cc(O)c2)C1=O [Compound 3, (Z)-ethyl 2-(5-(3,5-dihydroxybenzylidene)-2,4-dioxothiazolidin-3-yl) acetate] |  |  |  |  |  |  |  | rBAG3 KD ± SD [3]: n.b.
COC(=O)CN1C(=O)S/C(=C\c2cc(O)cc(O)c2)C1=O [Compound 4, (Z)-methyl 2-(5-(3,5-dihydroxybenzylidene)-2,4-dioxothiazolidin-3-yl) acetate] |  |  |  |  |  |  |  | rBAG3 KD ± SD [3]: n.b.

Now from value to compound, other results behind:

Kd (BAG3 domain (rBAG3BD)) [µM] | HeLa Cell Line IC50 ± SD [1] | IC50 [1] [µM] | rBAG4 KD ± SD [2] | Kd [3] [µM] | A375 Cell Line IC50 ± SD [4] | IC50 [4] [µM] | SMILES | other results
 |  | 27.3 ± 1.2 | n.b. | 0.115 ± 0.0014 |  | > 50 | COC(=O)CN1C(=O)S/C(=C\c2ccc(O)c(O)c2)C1=O [Compound 2, (Z)-methyl 2-(5-(3,4-dihydroxybenzylidene)-2,4-dioxothiazolidin-3-yl) acetate] | rBAG3BD KD ± SD (BAG3 domain (rBAG3BD)): n.b.
 | micromolar range | 25.9 ± 0.8 | n.b. | 0.144 ± 0.0015 | micromolar range | 23.2 ± 1 | CCOC(=O)CN1C(=O)S/C(=C\c2ccc(-c3ccc(C#N)cc3)cn2)C1=O [Compound 8, (Z)-ethyl 2-(5-((5-(4-cyanophenyl)pyridin-2-yl)methylene)-2,4-dioxothiazolidin-3-yl) acetate] | rBAG3BD KD ± SD (BAG3 domain (rBAG3BD)): n.b.
0.0224 ± 0.0007 | micromolar range | 31.3 ± 1 | n.b. | 0.0247 ± 0.0018 | micromolar range | 28.4 ± 0.9 | COC(=O)CN1C(=O)S/C(=C\c2ccc(-c3ccc(C#N)cc3)cn2)C1=O [Compound 9, (Z)-methyl 2-(5-((5-(4-cyanophenyl)pyridin-2-yl)methylene)-2,4-dioxothiazolidin-3-yl) acetate] | 
0.0064 ± 0.0022 |  | > 50 | n.b. ^a | 0.0111 ± 0.0039 |  | 15.1 ± 0.9 | CCOC(=O)CN1C(=O)S/C(=C\c2ccc(O)c(O)c2)C1=O [Compound 1, reference compound] | cell cycle distribution (G2 phase), HeLa (HeLa cells): no evident effect; apoptotic response (hypodiploid nuclei), A375 (A375 cells): dose-dependent increase in hypodiploid nuclei; cell cycle distribution (G2 phase), A375 (A375 cells): accumulation in the G2 phase; IC50 (A549): 32.3 ± 0.9 µM; effect on PHA-stimulated proliferating non-tumor cells [5]: No effect; IC50 (PC3): 48.1 ± 1.5 µM
